Experimental data published in patent US8318664B2, “Unacylated ghrelin fragments as therapeutic agent in the treatment of obesity” (Alize Pharma SAS, priority 2007, dated 2012).
Entries after “also recorded” stand apart in the source; their conditions may differ. Non-standard residues stand in square brackets, D forms with d. No end group written: not given here.

Columns and labels:
hamster HIT-T15 β-cells = experiment: MTT cell survival assay in HIT-T15 β-cells; format: cell-based
Protocol: MTT experiments were also performed in hamster HIT-T15 β-cells, to test the survival effect of UAG (1-28) or its fragments UAG (1-14), UAG (1-18), UAG (1-5) and UAG (17-28) in serum deprived medium, either alone or with IFN-γ/TNF-α/IL-1β. As for the experiments performed on INS-1E β-cells, the peptides were tested at increasing concentrations, ranging from 0.1 nM to 100 nM.
The survival effect of UAG (6-13), UAG (8-13), UAG (8-12), UAG (8-11), UAG (9-12) and UAG (9-11) was assessed in cytokine-treated HIT-T15 β-cells.
The protective effects of peptides UAG (8-13) and UAG (8-12) were found similar to those of UAG (1-14) and UAG (1-18). A peptide made of the inverse sequence of UAG (1-14) and named UAG (14-1), was used as negative control for these experiments (FIG. 5A). […] These effects were however lower than those of UAG (6-13) (FIG. 5B).
UAG fragments with alanine (Ala) substitutions at different amino acid positions (6 to 13) were tested with regards to their survival effects in HIT-T15 hamster β-cells. The cells were cultured in serum deprived medium, either alone or with IFN-γ/TNF-α/IL-1β. The peptides were tested at the concentrations of 1 nM to 100 nM. […] Under treatment with cytokines, where cell survival was reduced by ≈18% with respect to serum starved conditions, all Ala substitutions, except those at positions 10 and 11, completely reversed cell death and brought the survival rate to levels that were even higher than those under serum-free conditions, at both 1 nM and 100 nM concentrations. These effects were similar to those elicited by the original peptide UAG (6-13) (FIG. 11B).
Particularly, the best effect was exerted by Gly 6-UAG (6-13), whereas the lowest was seen using AcSer 6-UAG (6-13), AcSer 6-(D)Pro 7-UAG (6-13) (FIG. 12B).
(§1) Hamster HIT-T15 insulin-secreting β-cells were obtained and cultured as described (Refs. 14, 4). INS-1E rat β-cells were kindly provided by Prof. Claes B. Wollheim (University Medical Center, Geneva, Switzerland) and cultured as described (Refs. 14, 4). Cell culture reagents were from Invitrogen (Milano, Italy). Cytokines were from Biosource (Invitrogen, Italy).
(§2) Cell survival was assessed by 3-[4,5-dimethylthiazol-2-yl]-2,5diphenyltetrazolium bromide (MTT) as described previously (Ref. 4). Cells were seeded on 96-well plates at a density of 5×10^3 cells/well. After treatments, cells were incubated with 1 mg/ml MTT for ≈1 h. The medium was aspirated, and the formazan product solubilized with 100 μl DMSO. Viability was assessed by spectrophotometry at 570 nm absorbance using a 96-well plate reader.

HIT-T15 β-cells = experiment: Cytokine-induced apoptosis in HIT-T15 β-cells; format: cell-based, hamster; details: 24 h serum-free medium with IFN-γ/TNF-α/IL-1β, 1, 10, 100 nM
Protocol: HIT-T15 β-cells were cultured for 24 h in serum-free medium, either alone or with IFN-γ/TNF-α/IL-1β. In both cell lines, apoptosis increased under cytokine treatment, with respect to serum starvation alone. […] UAG (14-1), the inverse sequence of UAG (1-14), was used as negative control, whereas UAG (1-28), was used as positive control in each experiment.

INS-1E rat β-cells = experiment: MTT cell survival assay in INS-1E β-cells; format: cell-based; details: 0.1 nM to 100 nM
Protocol: The peptides were tested at increasing concentrations, ranging from 0.1 nM to 100 nM.
as §1, §2

human pancreatic islets = experiment: MTT cell survival assay in human pancreatic islets; format: cell-based; details: human islet cells, 1 nM to 100 nM
Protocol: The survival effect of UAG (1-14), UAG (1-18), UAG (1-5) and UAG (17-28), with respect to that of full length UAG (1-28), was assessed in human pancreatic islets by MTT. The peptides were tested in islet cells cultured in serum deprived medium, either alone or with IFN-γ/TNF-α/IL-1β (5 ng/ml each).
Human islets were obtained from pancreases of multiorgan donors as described (Ref. 4). Islet preparations with purity >70%, not suitable for transplantation, were provided by European Consortium for Islet Transplantation (ECIT) “Islets for Research Distribution Program,” Transplant Unit, Scientific Institute San Raffaele, Vita-Salute University, Milan. Islets (10,000) were cultured in CMRL (Invitrogen) with 10% FBS.
as §2

[1] = tested on: C57BL/6J male mice on high fat diet; experiment: High fat diet (HFD) pre-diabetic/onset obesity model in C57BL/6J mice; format: in vivo, mouse
Protocol: In order to assess the effects of UAG and cyclic UAG (6-13) on the metabolic responses to a high fat diet, ten (10) week old C57BL/6J male mice were allowed to acclimatize in the animal facility for 1 week. The mice were fed a standard chow (also referred herein as “normal diet” or “ND”, 9% kcal fat) and were maintained in 12 hour:12 hour light:dark conditions at 21° C. (FIG. 17).
At 11 weeks, the mice were separated into 2 different streams (n=10): the first stream consisted in 4 weeks of normal diet and the second stream consisted in 2 weeks of normal diet followed by 2 weeks of high fat diet (also referred herein as “HFD”, 41% kcal fat) with Intraperitoneal Glucose Tolerance Testing (IPGTT) (also referred herein as “IPGTT”) and Intraperitoneal Insuline Tolerance Testing (also referred herein as “IPITT”). Baseline 24 h food intake and IPGTTs were run before pump implantation (FIG. 17).
Alzet 1004 micro-osmotic pumps containing saline, UAG or cyclic UAG (6-13) were implanted at week 0 of the procedure depicted in FIG. 17 in the mice of the two streams (sc., interscapular) under isoflurane anesthesia and peri-operative carprofen analgesia (5 mg/kg sc.). UAG or cyclic UAG (6-13) peptides were infused at 4 nmol/kg/hr.
Body weight and 24 h food intake were measured weekly for 4 weeks and IPGTTs were performed bi-weekly for 4 weeks. […] The suppression in body weight gain observed in peptide-treated mice can therefore not be explained by a reduced food intake.
GTTs were performed following a 6 h fast starting at 8 am, then ˜100 μl of blood was collected from the tail vein (t=0) for measurement of insulin under fasting conditions (no anesthesia). Mice were injected ip. with 2 g/kg glucose in saline solution. Glucose was then measured using a glucometer using ˜0.5 μl of tail vein blood at t=0, 15, 30, 45, 60 and 120 minutes. During the GTT at wk 4 samples of ˜25 μl of tail vein blood were also collected at 15, 30 and 120 minutes for insulin determination.
The day after the final IPGTT, mice were fasted for 4 h starting at 8 am, then injected with human insulin (Actrapid, Novo Nordisk) at 0.5 IU/kg. Glucose in tail vein blood (˜0.5 μl) was measured with a glucometer at t=0, 15, 30, 45, 60 and 120 minutes (no anesthesia).
Tail vein blood glucose was measured by glucometer biweekly from free-fed mice in the non-IPGTT experimental streams (no anesthesia).

[2] = tested on: UAG receptor on HIT-T15 pancreatic β-cells; experiment: Competition with [125I-Tyr4]-UAG for binding sites on HIT-T15 membranes; design: species or system hamster
Protocol: (§3) The ability of the fragment UAG (6-13) to compete in a concentration-dependent manner with [^125I-Tyr^4]-UAG for HIT-T15 (FIG. 10A) and INS-1E (FIG. 10B) binding sites was assayed. As shown in FIGS. 10A and 10B, unlabelled UAG (1-28) and UAG (6-13) competed with a similar efficacy and in a concentration-dependent fashion with [^125I-Tyr^4]-UAG for such binding sites in both cell lines.
(§4) Membranes from hamster HIT-T15 and rat INS-1E pancreatic β-cells were prepared and assayed for the presence of [^125I-Tyr^4]-UAG binding. The ability of UAG fragments to compete with the radioligand for such binding sites has been evaluated as previously described (Ref. 4). Data are presented as mean±S.E.M. of three independent experiments.

[3] = tested on: UAG receptor on INS-1E pancreatic β-cells; experiment: Competition with [125I-Tyr4]-UAG for binding sites on INS-1E membranes; design: species or system rat
Protocol: as §3, §4

[4] = serum deprived medium with IFN-γ/TNF-α/IL-1β
[5] = serum deprived medium with IFN-γ/TNF-α/IL-1β (5 ng/ml each)

## Ac-Ser-Pro-Glu-His-Gln-Arg-Val-Gln-NH2 (Ac-SPEHQRVQ-NH2; listed as Homo sapiens) [AcSer 6-UAG (6-13)]
Hamster HIT-T15 β-cells; [4]
  cell survival (MTT): lowest

## Ac-Ser-pro-Glu-His-Gln-Arg-Val-Gln-NH2 (Ac-S[dP]EHQRVQ-NH2; listed as Homo sapiens) [AcSer 6-(D)Pro 7-UAG (6-13)]
Hamster HIT-T15 β-cells; [4]
  cell survival (MTT): lowest

## EHQRVQ [UAG (8-13)]
Hamster HIT-T15 β-cells; [4]
  cell survival (MTT): significant protective effect at all the concentrations examined; also recorded: strongly effective in increasing survival
HIT-T15 β-cells
  antiapoptotic effect (cytokine-induced apoptosis): significantly inhibited apoptosis at 10 and 100 nM; also recorded: strongest antiapoptotic effect

## ESKKPPAKLQPR [UAG (17-28)]
INS-1E rat β-cells; serum deprived medium alone
  cell survival (MTT): reduced, although significant, survival action; also recorded: only a trivial effect
INS-1E rat β-cells; [4]
  cell survival (MTT): reduced effect; also recorded: only a trivial effect
Hamster HIT-T15 β-cells; serum deprived medium alone
  cell survival (MTT): no significant effect; also recorded: very little effect
Hamster HIT-T15 β-cells; [4]
  cell survival (MTT): no significant effect; also recorded: very little effect
Human pancreatic islets; serum deprived medium alone
  cell survival (MTT): significantly increased survival of islet cells
Human pancreatic islets; [5]
  cell survival (MTT): had no effect

## Glu-His-Gln-Arg (EHQR; listed as Homo sapiens) [UAG (8-11)]
Hamster HIT-T15 β-cells; [4]
  cell survival (MTT): significant survival effect only at 100 nM

## Glu-His-Gln-Arg-Val (EHQRV; listed as Homo Sapiens) [UAG (8-12)]
Hamster HIT-T15 β-cells; [4]
  cell survival (MTT): strongly effective in increasing survival
HIT-T15 β-cells
  antiapoptotic effect (cytokine-induced apoptosis): some protective effect only at 100 nM; also recorded: strongest antiapoptotic effect

## Gly-Pro-Glu-His-Gln-Arg-Val-Gln-NH2 (GPEHQRVQ-NH2; listed as Homo sapiens) [Gly 6-UAG (6-13)]
Hamster HIT-T15 β-cells; [4]
  cell survival (MTT): best effect

## Gly-Ser-Ser-Phe-Leu (GSSFL; listed as Homo sapiens) [UAG (1-5)]
INS-1E rat β-cells; serum deprived medium alone
  cell survival (MTT): reduced, although significant, survival action; also recorded: only a trivial effect
INS-1E rat β-cells; [4]
  cell survival (MTT): reduced effect; also recorded: only a trivial effect
Hamster HIT-T15 β-cells; serum deprived medium alone
  cell survival (MTT): very little effect
Hamster HIT-T15 β-cells; [4]
  cell survival (MTT): slightly increased cell survival; also recorded: very little effect
Human pancreatic islets; serum deprived medium alone
  cell survival (MTT): little, although significant survival action at 10 nM
Human pancreatic islets; [5]
  cell survival (MTT): no cell protection

## His-Gln-Arg [UAG (9-11)]
Hamster HIT-T15 β-cells; [4]
  cell survival (MTT): no significant effect at both concentrations tested

## His-Gln-Arg-Val (HQRV; listed as Homo sapiens) [UAG (9-12)]
Hamster HIT-T15 β-cells; [4]
  cell survival (MTT): significantly increased cell survival at both the concentrations tested

## Ser-Pro-Glu-His-Gln-Arg-Val-Gln (cyclic) (SPEHQRVQ; cyclic; (1)..(8) Cyclic; listed as Homo sapiens) [cyclic UAG (6-13)]
[1]; HFD, 4 nmol/kg/hr sc. infusion, compared to saline-HFD
  body weight gain: suppressed body weight gain
[1]; HFD, pre-diabetic, normoglycemic conditions
  glucose levels in fasting or fed state: does not significantly affect glucose levels
[1]; IPITT, HFD
  HFD-induced insulin resistance (insulin tolerance test, area above the glucose curve): restores insulin resistance to a level that is comparable to ND control
[1]; after 2 weeks on the HFD
  HFD-induced glucose intolerance (IPGTT): prevents glucose intolerance
[1]; at 4 weeks, HFD
  reduction of eWAT normalized for body weight: about 28%
  weight of epididymal white adipose tissue (eWAT): lower than that of the control mice fed on the HFD

## UAG (1-13): fragment named only in b101 as binding to the UAG receptor; possibly a misprint (GSSFLSPEHQRVQ)
[2]
  binding to the UAG receptor: recognized and bound
[3]
  binding to the UAG receptor: recognized and bound
